Reference: PubChem BioAssay (NCI)
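How tested: cells in 96-well plates exposed to compound for 48 hours at five concentrations. GI50 = concentration required for 50% inhibition of growth. TGI marks complete inhibition of growth.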

Experiments:
Test in all cases: NCI anticancer screen, dose series, 48 h
HOP-62 NSCLC = system: HOP-62 NSCLC
SN12C renal = system: SN12C renal
SK-MEL-28 melanoma = system: SK-MEL-28 melanoma
HOP-92 NSCLC = system: HOP-92 NSCLC
SF-539 CNS = system: SF-539 CNS
RPMI-8226 leukemia = system: RPMI-8226 leukemia
HT29 colon = system: HT29 colon
COLO 205 colon = system: COLO 205 colon
786-0 renal = system: 786-0 renal
IGROV1 ovarian = system: IGROV1 ovarian
CCRF-CEM leukemia = system: CCRF-CEM leukemia
M14 melanoma = system: M14 melanoma
UO-31 renal = system: UO-31 renal
SK-MEL-2 melanoma = system: SK-MEL-2 melanoma
MALME-3M melanoma = system: MALME-3M melanoma
MCF7 breast = system: MCF7 breast
BT-549 breast = system: BT-549 breast
OVCAR-5 ovarian = system: OVCAR-5 ovarian
OVCAR-8 ovarian = system: OVCAR-8 ovarian
SK-OV-3 ovarian = system: SK-OV-3 ovarian
NCI-H226 lung = system: NCI-H226 lung
RXF 393 renal = system: RXF 393 renal
HS 578T breast = system: HS 578T breast
TK-10 renal = system: TK-10 renal
PC-3 prostate = system: PC-3 prostate
OVCAR-3 ovarian = system: OVCAR-3 ovarian
SNB-19 CNS = system: SNB-19 CNS
OVCAR-4 ovarian = system: OVCAR-4 ovarian
UACC-257 melanoma = system: UACC-257 melanoma

Which results are given for COc1ccc(/C=N/NC(=O)c2[nH]c3ccc(Br)cc3c2-c2ccccc2)s1?
GI50 (HOP-62 NSCLC): 455 nM; TGI (HOP-62 NSCLC): > 87800 nM; GI50 (SN12C renal): 116 nM; TGI (SN12C renal): > 42100 nM; GI50 (SK-MEL-28 melanoma): 745 nM; TGI (SK-MEL-28 melanoma): > 100000 nM; GI50 (HOP-92 NSCLC): 1280 nM; TGI (HOP-92 NSCLC): > 100000 nM; GI50 (SF-539 CNS): 72.4 nM; TGI (SF-539 CNS): 206 nM; GI50 (RPMI-8226 leukemia): 118 nM; TGI (RPMI-8226 leukemia): > 100000 nM; GI50 (HT29 colon): 84.6 nM; TGI (HT29 colon): 3290 nM; GI50 (COLO 205 colon): 195 nM; TGI (COLO 205 colon): 375 nM; GI50 (786-0 renal): 152 nM; TGI (786-0 renal): > 100000 nM; GI50 (IGROV1 ovarian): 123 nM; TGI (IGROV1 ovarian): 25200 nM; GI50 (CCRF-CEM leukemia): 121 nM; TGI (CCRF-CEM leukemia): > 100000 nM; GI50 (M14 melanoma): 142 nM; TGI (M14 melanoma): > 100000 nM; GI50 (UO-31 renal): 188 nM; TGI (UO-31 renal): > 100000 nM; GI50 (SK-MEL-2 melanoma): 93.5 nM; TGI (SK-MEL-2 melanoma): 36400 nM; GI50 (MALME-3M melanoma): 148 nM; TGI (MALME-3M melanoma): > 70300 nM; GI50 (MCF7 breast): 110 nM; TGI (MCF7 breast): 14400 nM; GI50 (BT-549 breast): 88.5 nM; TGI (BT-549 breast): 367 nM; GI50 (OVCAR-5 ovarian): 136 nM; TGI (OVCAR-5 ovarian): > 100000 nM; GI50 (OVCAR-8 ovarian): 59.3 nM; GI50 (SK-OV-3 ovarian): 219 nM; TGI (SK-OV-3 ovarian): 99400 nM; GI50 (NCI-H226 lung): 115 nM; TGI (NCI-H226 lung): 30200 nM; GI50 (RXF 393 renal): 299 nM; TGI (RXF 393 renal): 910 nM; GI50 (HS 578T breast): 1140 nM; TGI (HS 578T breast): > 31400 nM; GI50 (TK-10 renal): 3720 nM; TGI (TK-10 renal): > 75100 nM; GI50 (PC-3 prostate): 263 nM; TGI (PC-3 prostate): > 89400 nM; GI50 (OVCAR-3 ovarian): 249 nM; TGI (OVCAR-3 ovarian): 823 nM; GI50 (SNB-19 CNS): 275 nM; TGI (SNB-19 CNS): > 95200 nM; GI50 (OVCAR-4 ovarian): 224 nM; TGI (OVCAR-4 ovarian): 57600 nM; GI50 (UACC-257 melanoma): 283 nM; TGI (UACC-257 melanoma): > 100000 nM
